Assays:
Assay type in all cases: physicochemical
[1] = MDSC thermal analysis (Tg)
Procedure: MDSC was performed using a TA Instruments Discovery DSC2500 differential scanning calorimeter equipped with a TA instruments Refrigerated Cooling System 90. MDSC was used to measure thermodynamic events and characteristics of Compound 1 API and subsequent SDIs. Events observed include the glass transition temperature (Tg), cold crystallization (Tc, defined as a crystallization event at a temperature lower than the melt temperature) and melting temperature (Tm). SDI samples were placed in non-hermetic aluminum pans and heated at a constant rate of 2.0° C./min over a 0-200° C. temperature range. The system was purged by nitrogen flow at 50 mL/min to ensure inert atmosphere through the course of measurement. […] The resulting amorphous API was analyzed by modulated DSC up to 265° C. […]
Thermal properties including melting temperature (Tm), glass transition temperature (Tg) and crystallization temperature (Tc) of Compound 1 crystalline Form H (anhydrous/solvate free) were measured by MDSC. […] The Tg was measured via a melt-quench technique, heating Compound 1 past its melting temperature and rapidly cooled in liquid nitrogen to trap the molten material in an amorphous state. The resulting sample was analyzed by MDSC and a Tg of 130° C. was observed (FIGS. 1A-B/Table 9) with no observed crystallization peaks or clear melting events in the subsequent amorphous ramp up to 275° C. […]

[2] = Two stage gastric transfer non-sink dissolution test (0.1N HCl/FaSSIF)
Procedure: In-vitro drug dissolution performance for each SDI is evaluated by Patheon's two stage ‘gastric transfer’ non-sink dissolution test (Table 8), which simulates pH and bile salt concentrations for both gastric and intestinal exposure in a simple to perform assay. Pre-weighed SDI powder is briefly suspended in media (e.g. by 10 sec vortex mixing with 4.0 mL media) and transferred to a pre-heated (37° C.) volume of 50 mL of 0.1N HCl(aq) (simulated gastric fluid or SGF, pH˜1.0, without pepsin or bile salts), in a USP Type 2 mini-vessel (100 mL total vessel volume) while stirring (paddles) at 100 rpm. After 30 minutes of gastric pH exposure, an equal volume of PBS buffered, 2× concentrated fasted-state simulated intestinal fluid (FaSSIF) is added to the SGF, resulting in a final pH of 6.8 in FaSSIF (100 mM PBS containing 2.24 mg/mL SIF powder (original) (Biorelevant Inc.) in a total volume of 100 mL. Aliquiots (1.0 mL) of dissolution media are taken at selected time-points before and after the simulated gastric transfer, spun-down (13000 rpm) to pellet out undissolved solids, and the supernatant sampled and further diluted in an appropriate diluent to determine API total drug concentration (e.g. free and colloidal/polymer-bound drug in solution) utilizing a suitable HPLC method. Additional centrifugation and filtration was performed using 10K molecular weight cutoff filters to remove polymer bound aggregates and colloids. The resulting filtrate of free drug consists of drug in solution and micelles. The volume of FaSSIF added is adjusted to account for the sampling volume removed prior to gastric transfer (typically 4×1.0 mL). Initial Compound 1 API measurements and SDI dissolution samples were determined utilizing HPLC.
The dissolution performance of the SDI material and crystalline Compound 1 was tested in Patheon's non-sink dissolution test (FIG. 6 and Table 15). The dissolution test is used to measure the supersaturation of drug above the bulk crystalline Compound 1 solubility in biorelevant intestinal media (FaSSIF) after 30 minutes exposure to a low-pH environment. […]

[3] = Visual solubility in common spray drying solvents
Procedure: Organic solubility of Compound 1 was determined visually in common spray drying solvents (Table 10) and Compound 1 lot AC5313-058P1 was utilized. […] When removed from heat API crashes out after 5 minutes. Solution (% w/w) was then prepared at 2.0% Compound 1 and heated to 40° C. where solids dissolved immediately. The 2.0% solution was then removed from heat where API appeared to crash out after ˜2 hours.

[4] = 60:40 DCM:Methanol, clear solution when heated to 40° C.
[5] = 80:20 DCM:Methanol, clear solution when heated to 40° C.
[6] = 90:10 DCM:Methanol, clear solution when heated to 40° C.

SMILES: O=c1[nH]ncc(N2CCc3c(ncnc3Oc3ccc(F)cc3C(F)(F)F)C2)c1Cl [Compound 1, 4-chloro-5-(4-(4-fluoro-2-(trifluoromethyl)phenoxy)-5,8-dihydropyrido[3,4-d]pyrimidin-7(6H)-yl)pyridazin-3(2H)-one]
- Tg ([1]; amorphous API by melt-quench, MDSC): 130 °C
- Tm/Tg ratio ([1]; indicating moderate physical stability): 1.32
- Total Drug AUC35-210 FaSSIF ([2]; area under the curve after transfer to FaSSIF from 35 to 210 minutes): 600 min * μgA/mL
- Total Drug C210 ([2]; drug concentration at 180 minutes after transfer to FaSSIF): 3.5 μgA/mL
- Increase in AUC over API AUC ([2]; non-sink dissolution, FaSSIF): 0.4
- Compound 1 Visual Solubility ([3]; 50:50 DCM:Methanol): >1.0 wt .%
- Observation (visual solubility) ([3]; 50:50 DCM:Methanol): Insoluble
- Compound 1 Visual Solubility [3, 4]: 2.0-3.0 wt .%
- Observation (visual solubility) [3, 4]: Soluble^1
- Compound 1 Visual Solubility [3, 5]: 1.0-1.5 wt .%
- Observation (visual solubility) [3, 5]: Soluble^1
- Compound 1 Visual Solubility [3, 6]: 1.0-1.5 wt .%
- Observation (visual solubility) [3, 6]: Soluble^1
- Compound 1 Visual Solubility ([3]; 95:5 Acetone:Water): >1.0 wt .%
- Observation (visual solubility) ([3]; 95:5 Acetone:Water): Insoluble
- Compound 1 Visual Solubility ([3]; Acetone): >1.0 wt .%
- Observation (visual solubility) ([3]; Acetone): Insoluble
- Compound 1 Visual Solubility ([3]; Methanol): >1.0 wt .%
- Observation (visual solubility) ([3]; Methanol): Insoluble
- Compound 1 Visual Solubility ([3]; Methlyene Chloride (DCM)): >1.0 wt .%
- Observation (visual solubility) ([3]; Methlyene Chloride (DCM)): Insoluble
- Compound 1 Visual Solubility ([3]; Methyl Ethyl Ketone (MEK)): >1.0 wt .%
- Observation (visual solubility) ([3]; Methyl Ethyl Ketone (MEK)): Insoluble
- Compound 1 Visual Solubility ([3]; Tetrahydrofuran (THF)): >1.0 wt .%
- Observation (visual solubility) ([3]; Tetrahydrofuran (THF)): Insoluble
- maximum active loading in solution ([3]; heated (40° C.) 60:40 DCM:Methanol, % w/w): 2.0%
